From US20140294849A1, “COMPOSITIONS AND USES” (GLAXOSMITHKLINE BIOLOGICALS SA, priority 2011, published 2014)
Read-outs that look alike come from different tables or passages of the source. No end group written: not given here.

Assays:
Aβ plaques = experiment: Aβ total plaque loading, stereological analysis of brain sections; assay type: in vivo, APPSwe/PS1 mice
[1] = system: Lineage-CD11b+ monocytes in peripheral blood; experiment: Monocyte analysis and counting after adjuvant injection in mice; assay type: in vivo, C57BL/6 mice
Description: (§1) 24-Hours after injection of the TLR adjuvants, peripheral blood was drawn from C57BL/6 mice via cardiac puncture with lithium-heparin as anticoagulant. Red blood cell lysis was performed twice on pooled blood with Ammonium Chloride-based Buffer (Sigma, Steinheim, Germany) and cells were counted with the EasyCount™ System (Immunicon). […] Cells were finally washed three times and fixed for 15 min. with a 2% paraformaldehyde solution in PBS. Fluorescence minus one (FMO) controls were always included in the assays for fluorescent compensation setting. Samples were acquired on a flow cytometer (BD FACSCanto II) and data analyzed with the FACSDiva software (BD Biosciences). Monocytes were identified by their Side/Forward scatter properties and gated as CD3-/CD45R/B220-/Ly-6G-/NK1.1-(Lineage-)/CD11b+ cells. CD11b+ monocyte frequency was reported as a percentage of the total cells excluding debris.
as §1, with “24 hours” for “24-Hours”, “each immunomodulator,” for “the TLR adjuvants,”, “min” for “min.”, “monocytes” for “monocyte”
Cells were finally washed twice and fixed for 15 min. with a 2% paraformaldehyde solution in PBS. FMOs controls were always included in the assays. Samples were acquired on a flow cytometer (BD FACSCanto II) and data analyzed with the FACSDiva software (BD Biosciences). Monocytes were identified and counted by their Side/Forward scatter properties, excluding debris and gated as CD3-/CD45R/B220-/Ly-6G-/NK1.1-(Lineage-)/CD11 b+ cells.

[2] = system: cytokines and chemokines in sera; assay type: in vivo, C57BL/6 mice; conditions: for levels of TNF-α and IL-6: i.p.
Description: Mice (n=5) received 50 μl of adjuvant formulations by i.m. injection for the PBS, AS03, AS01B and AS04D. PBS or LPS or MPL were injected using the intraperitoneal route and sera were collected at 2 and 6 h time points. Whole blood was collected by cardiac puncture from mice and centrifuged on a vacutainer blood collection tube containing gel for serum separation. Serum samples were cleared by centrifugation and stored at −80° C. until analysis. Protein levels in the cleared sera samples were measured by cytokine-specific beads (Millipore, USA) using the Luminex™ platform.
To determine whether the low inflammatory response observed in the previous in vitro experiments can be reproduced in vivo, we measured several cytokines and chemokines in the sera of C57BL/6 mice 2 and 6 h following a single intraperitoneal injection of either MPL or LPS. […] Noteworthy, IL-1β is not increased in response to MPL in contrast to LPS treatment.

[3] = system: spatial learning and memory; experiment: T-water maze in APP/PS1 mice; assay type: in vivo, APPSwe/PS1 mice; conditions: for behaviour as assessed by T water maze testing: Example 21, twelve weekly injections, vs non treated mice; for cognitive functions, T-water maze: Example 22, vs PBS
Description: Five groups of APPSwe/PS1 mice received one a week for a period of 12 weeks the following treatment: • Gr1: APPSwe/PS1+NaCl 0.9% n(=20), i.p. injections • Gr4: APPSwe/PS1+CRX527 (20 μg/mouse, 130 μl, n=10), i.p. injections • Gr5: […] (50 μg/mouse, 130 μl, n=10), i.p. injections • Gr8 APPSwe/PS1+AS15 ( 1/10th of human dose, 50 μl, n=10), i.m. injections • Gr9: APPSwe/PS1+AS01B ( 1/10th of human dose, 50 μl, n=10), i.m. injections
Mice were tested during the “light on” phase of the day. Behavioral experimenter was blinded to the genetic and treatment status of animals. To assess hippocampal-dependent spatial learning and memory, mice were trained in the T-water maze task. In this paradigm, we evaluate the mouse's ability to remember the spatial location of submerged platform. The T-maze apparatus (length of stem, 64 cm; length of arms, 30 cm; width, 12 cm; height of walls, 16 cm) was made of clear fiberglass and filled with water (23±1° C.) at a height of 12 cm. A platform (11×11 cm) was placed at the end of the target arm and was submerged 1 cm below the surface. The acquisition phase allows to evaluate animals for left-right spatial learning. During the first two trials, platforms were placed on each arms of the maze to test the spontaneous turning preference of the mouse. After these two trials, the least chosen arm was reinforced by the escape platform. The mice were placed in the stem of the T-maze and choose to swim either left or right until they found the submerged platform and escape to it, to a maximum of 60 s. After reaching the platform, the mice remained on it for 20 s and then were immediately placed back in the maze. […] Repeated trials were presented on the same day up to a maximum of 48 trials. A rest period of at least 10-15 min intervened between each block of 10 trials. A mouse was considered to have learned the task when it made no errors in a block of five consecutive trials. The reversal learning phase was then conducted 48 h later. During this phase, the same protocol was repeated, except that the mice were trained to find the escape platform on the opposite side to that on which they had learned on acquisition phase. The number of trials to reach the criterion (five of five correct choices made on consecutive trials) was measured as well as the latency to find the escape platform.

[4] = system: human microglial cell line CHME; experiment: Phagocytosis of beta-amyloid 1-42 peptide by CHME cells; assay type: cell-based; conditions: Example 18
Description: Phagocytosis of beta-amyloid 1-42 peptide by the human microglial cell line CHME was observed after the addition of TLR2 agonist containing adjuvants Protollin and Pam3CysLip peptide. […] The synthetic peptide sequence of the Pam3Cys Lip peptide is described herein: Pam3Cys—SQ EPAAPAAEAT PAAEAP. Protollin was used at concentration 1 ug per ml based on the LPS content from Shigella flexneri. Pam3Cys lip peptide was used at concentration of 5 ug per ml of the pure tri-palmitoylated peptide.
Additionally, cells were imaged using 42 HiLyte 488 Fluo (Anaspec, Inc.) at 2 ug per ml in DMEM complete media (Invitrogen). Lysotracker red staining was performed and slides were mounted and co-stained with DAPI to show the nucleus (blue). […] Lysotracker red reagent was purchased from Invitrogen and used as manufacturer recommendations.

[5] = system: CD11b+ peripheral blood monocytes; experiment: Ex vivo uptake assay of Aβ1-42; assay type: cell-based, C57BL/6 mice; conditions: Example 19, FIG. 20; QS21 5 μg i.m.
Description: Preparation of cells: Peripheral blood was drawn from C57BL/6 mice via cardiac puncture with lithium-heparin as anticoagulant, 24-hours after injection of the adjuvants used herein. Red blood cell lysis was performed twice on pooled blood with Ammonium Chloride-based Buffer (Sigma, Steinheim, Germany) and cells were counted with the EasyCount™ System (Immunicon). […]
FACS analysis: cells were harvested after incubation with fluorescent Aβ peptide with Trypsin/EDTA and cold PBS and washed three times. 500,000 cells were incubated in 96-well plate for 10 min. on ice in the presence of Rat anti-Mouse CD16/CD32 (clone 2.4G2—BD Fc Block™) and further stained for 30 min. with a combination of the following directly conjugated antibodies at their pre-determined optimal concentration: PE-Hamster anti-Mouse CD3 (clone 145-2C11), Rat anti-Mouse CD45R/B220 (clone RA3-6B2), Rat anti-Mouse Ly-6G (clone 1A8), Mouse anti-Mouse NK1.1 (clone PK136), APC-conjugated Rat anti-Mouse CD11b (clone M1/70), PE-Cy7-conjugated Hamster anti-Mouse CD11c (clone HL3), (all from BD PharMingen). […]
Samples were acquired on a flow cytometer (BD FACSCanto II) and data analyzed with the FACSDiva software (BD Biosciences). […]

3-O-desacyl-4′-monophosphoryl lipid A [3D MPL]
plaque loading, combined data of Example 21 and 22 (Aβ plaques; ANOVA-2, P<0.01, intra peritoneal): statistical significant plaque loading reduction | brain histology of amyloid plaques (Aβ plaques; Example 21, FIG. 26, immunofluorescence 6E10): more compacted plaques with less total area | Amyloid beta plaque number (Aβ plaques; Example 21, 50 μg/mouse i.p., once a week for 12 weeks): statistically significant reduction in Amyloid beta plaque number | Aβ amyloid plaque level in the brain (Aβ plaques; Example 22, FIG. 27B, intra peritoneal route): trend of reducing the Aβ amyloid plaque | number of CD11b+ monocytes compared to the PBS control ([1]; Example 9, 5 ug/mouse, i.m.): about double | monocyte numbers ([1]; Example 10, single i.m. injection, at 5 and 25 ug/mouse dose): stimulate monocyte numbers | levels of TNF-α and IL-6 ([2]; 2 h post injection): modest increase | innate cytokine profile ([2]; Example 28, 3D MPL i.p., AS01B i.m., data not shown): attenuated cytokine profile compared to LPS | most of the cytokine and chemokine levels ([2]; Example 28, single intraperitoneal injection, 2 and 6 h): substantially lower than those of LPS-treated animals | levels of TNF-α and IL-6 ([2]; after 6 h): essentially abolished | IL-1β ([2]; single i.p. injection, in contrast to LPS): not increased | T-water tests, combined data of Example 21 and 22 ([3]; ANOVA-2 tests, FIG. 27C): statistical significance | behaviour as assessed by T water maze testing [3]: significant improvements in behaviour | cognitive functions, T-water maze ([3]; i.m. 12x weekly, CRX601 2 μg, CRX601 2 ug in AS03, 3D MPL 5 ug, AS01B 1/10 human dose, unpaired t-tests): significant improvement of their cognitive functions | cognitive functions, T-water maze ([3]; intra peritoneal 50 ug per mouse, 12x weekly): significant improvement of their cognitive functions

CCCCCCCCCCC[C@H](CC(=O)N[C@H]1[C@H](OC[C@H](NC(=O)C[C@@H](CCCCCCCCCCC)OC(=O)CCCCCCCCC)C(=O)O)O[C@H](CO)[C@@H](OP(=O)(O)O)[C@@H]1OC(=O)C[C@@H](CCCCCCCCCCC)OC(=O)CCCCCCCCC)OC(=O)CCCCCCCCC [CRX527]
behaviour as assessed by T water maze testing [3]: significant improvements in behaviour

Pam3Cys—SQ EPAAPAAEAT PAAEAP (Pam3Cys-SQEPAAPAAEATPAAEAP) [Pam3CysLip peptide, TLR2 agonist, tri-palmitoylated peptide]
phagocytosis ([4]; 5 ug per ml, pre-incubation 18 hrs): 86 % of cells | amyloid phagocytic activity ([4]; compared to PBS, Protollin 1 ug per ml, Pam3Cys lip peptide 5 ug per ml): higher amyloid phagocytic activity

QS21 [reference compound]
Aβ uptake by peripheral blood monocytes [5]: does not promote Aβ uptake | activated Ly6C+ monocytes ([1]; Example 19, single i.m. injection, 24 hrs): 75% | number of monocytes ([1]; Example 19, single i.m. injection, after 24 hrs, QS21 5 μg): 9.1 % of total peripheral white blood cells
